Test results reported in PMC11537054, “A conserved two-component system senses intracellular iron levels and regulates redox balance in Mycobacterium spp” (Microbiology Spectrum, 2024).
pKd: −log10 of the molar value.

Biological target: PdtaS (PdtaS-eGFP) (Mycobacterium tuberculosis, UniProt P9WGL5)
Experiment: biochemical

Chain of PdtaS (PdtaS-eGFP) (P9WGL5 whole entry): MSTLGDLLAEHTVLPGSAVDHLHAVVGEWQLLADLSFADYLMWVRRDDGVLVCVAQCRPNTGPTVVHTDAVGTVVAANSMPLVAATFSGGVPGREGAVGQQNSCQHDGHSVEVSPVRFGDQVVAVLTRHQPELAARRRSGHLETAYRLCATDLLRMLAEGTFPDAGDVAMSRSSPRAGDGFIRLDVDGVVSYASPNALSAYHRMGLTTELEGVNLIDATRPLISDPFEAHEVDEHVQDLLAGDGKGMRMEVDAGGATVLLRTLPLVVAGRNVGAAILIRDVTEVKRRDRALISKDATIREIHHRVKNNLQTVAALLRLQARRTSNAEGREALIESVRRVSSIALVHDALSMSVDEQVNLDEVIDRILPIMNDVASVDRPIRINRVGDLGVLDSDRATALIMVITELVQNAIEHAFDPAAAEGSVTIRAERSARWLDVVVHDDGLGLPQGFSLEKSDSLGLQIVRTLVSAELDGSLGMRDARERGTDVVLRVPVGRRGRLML

Question: How did the pKd turn out when `C=CC1=C(C)C2=Cc3c(C=C)c(C)c4[n]3[Fe]([Cl])[n]3c(c(C)c(CCC(=O)O)c3=CC3=NC(=C4)C(C)=C3CCC(=O)O)=CC1=N2` [hemin] was run?
Answer: ~7.76
